In one series the test system is Enterobacteriaceae. Description: Broth microdilution MIC (Example 11), group statement. It is filed as cell-based. The conditions noted are these: ATCC QC E. coli, ESBL-, KPC- and NDM-1-positive isolates. On the technique in general: In broth dilution the organism is exposed to a series of concentrations in liquid medium.
For the next series, the system named is S. aureus ATCC 29213. Put plainly: Broth microdilution MIC, QC organism (Example 13, Table 110). It is filed as cell-based, Staphylococcus aureus. The source says:
MECs were only reported where observed.

The subject of series [1] is Enterococcus spp. (E. faecalis, E. faecium). Put plainly: Broth microdilution MIC (Example 11). In kind it is cell-based. The note with it: enterococci incl. vancomycin-resistant E. faecalis and E. faecium.
The next series has as its system Aspergillus spp. Put plainly: Broth microdilution MIC/MEC, mold (Example 13). It is filed as cell-based. The note with it: for MEC (minimum effective concentration): read-out: MEC at 48 hr (MIC0 not observed).
In another series the test system is N. gonorrhoeae. Put plainly: Agar dilution MIC (Example 11). In kind it is cell-based, Neisseria gonorrhoeae. The conditions noted are these: QC isolate, ciprofloxacin-resistant and ceftriaxone non-susceptible isolates. A general note: In agar dilution, organisms are placed on agar that contains the substance at set levels.
Series [2] can be described thus: Particle size distribution of BisEDT microparticles. In kind it is physicochemical. The conditions noted are these: microparticles resuspended in 2% poloxamer 188, Nanosizer/Zetasizer Nano-S. As for the experimental part:
The dried particulate matter was characterized to assess the particle size properties. Briefly, microparticles were resuspended in 2% poloxamer 188 (Pluronic® F-68) (BASF, Mt. Olive, NJ) and the suspension was sonicated for 10 minutes in a water bath sonicator at standard setting prior to analysis using a Nanosizer/Zetasizer Nano-S particle analyzer (model ZEN1600 (without zeta-potential measuring capacity), Malvern Instruments, Worcestershire, UK) according to the manufacturer's recommendations.
It was observed that careful control of the reaction temperature and the rate of 1,2 ethanedithiol addition had pronounced impact on the BisEDT particle size distribution.

A short description of series [3]: Phase 1 human clinical studies, topical administration. In kind it is in vivo. The conditions noted are these: humans.
The next series has as its system E. coli ATCC 25922. The note with it: control strain ATCC 25922 E. coli; per CLSI M100-S24 or provided by Microbion; cited from earlier work.
Series [4] in a line: Rat tolerance of BisEDT (inhalation, IV, oral). The note with it: 100 μg/kg inhalation and IV and 250 μg/kg oral, single dose.
The test system of another series is Pseudomonas aeruginosa. Description: Broth microdilution MIC (Example 12).
Series [5] deals with Burkholderia cepacia complex. Put plainly: Checkerboard FIC assay, BisEDT with CF agents (Example 10). It is filed as cell-based, Burkholderia spp. The conditions noted are these: agent alone, as observed during FIC testing.
The next series deals with Klebsiella pneumoniae. Put plainly: Broth microdilution MIC (Example 12).

Converted amounts (≈) assume the structure as drawn. Where two headings read alike, the source gives them in different places. Marks after values point to notes of the source that are not given here.

With `CC(S)C(C)S.[Bi]` (stereo not drawn) [BisBDT, bismuth-2,3-butanedithiol], the “MIC values (range across isolates)” value lay in the range of 0.5 to 2 µg/mL against Enterobacteriaceae, 0.25 to 1 µg/mL in series [1] and 0.06 to 0.25 µg/mL with N. gonorrhoeae. Also, the “MIC 24 hr” value was 1^a in the series with S. aureus ATCC 29213; 4 µg/mL in the series on Aspergillus spp. (A. flavus ATCC 204304 (QC, Table 110), 24 hr); 2 µg/mL in the series on Aspergillus spp. (A. fumigatus ATCC MYA-3626 (QC, Table 110), 24 hr). The MIC worked out at 1 µg/mL in the series with Aspergillus spp. (24 h, A. flavus ATCC 22546, 24 hr, read-out: MIC0 24 hr (complete inhibition)); 4 µg/mL in the series on Aspergillus spp. (24 h, A. flavus ATCC 204304, 24 hr, read-out: MIC0 24 hr (complete inhibition)); 8 µg/mL with Aspergillus spp. (24 h, A. flavus MMX 7935, 24 hr, read-out: MIC0 24 hr (complete inhibition)); 8 µg/mL in the series on Aspergillus spp. (24 h, A. fumigatus ATCC 204305, 24 hr, read-out: MIC0 24 hr (complete inhibition)); 2 µg/mL with Aspergillus spp. (24 h, A. fumigatus ATCC MYA-3626, 24 hr, read-out: MIC0 24 hr (complete inhibition)); 2 µg/mL with Aspergillus spp. (24 h, A. fumigatus MMX 5934, 24 hr, read-out: MIC0 24 hr (complete inhibition)). Besides, the MIC with Aspergillus spp. (24 h, A. fumigatus MMX 5939, 24 hr, read-out: MIC0 24 hr (complete inhibition)) is 2 µg/mL; in the series with Aspergillus spp. (24 h, read-out: MIC0 24 hr (complete inhibition), A. terreus MMX 8229, 24 hr), 0.25 µg/mL; in the series on Aspergillus spp. (48 h, A. flavus ATCC 22546, 48 hr, read-out: MIC0 48 hr (complete inhibition)) it was 2 µg/mL; with Aspergillus spp. (48 h, A. flavus MMX 7935, 48 hr, read-out: MIC0 48 hr (complete inhibition)) it was 8 µg/mL; in the series with Aspergillus spp. (48 h, A. fumigatus ATCC MYA-3626, 48 hr, read-out: MIC0 48 hr (complete inhibition)), 4 µg/mL; in the series with Aspergillus spp. (48 h, A. terreus MMX 8229, 48 hr, read-out: MIC0 48 hr (complete inhibition)), 1 µg/mL. In the series with Aspergillus spp. (read-out: MIC0 48 hr (complete inhibition)), the MIC amounted to 2 µg/mL. In addition, the MEC (minimum effective concentration) was found to be 4 µg/mL in the series with Aspergillus spp. (48 h, A. flavus ATCC 204304, 48 hr); 4 µg/mL in the series on Aspergillus spp. (48 h, A. fumigatus ATCC 204305, 48 hr); 4 µg/mL in the series with Aspergillus spp. (48 h, A. fumigatus MMX 5934, 48 hr); 4 µg/mL with Aspergillus spp. (48 h, A. fumigatus MMX 5939, 48 hr). In addition, the “MIC 48 hr, marked with footnote c” value against Aspergillus spp. (A. flavus ATCC 204304 (QC, Table 110), 48 hr, footnote c not given, probably MEC) is on record as 4^c. The MIC 48 hr in the series with Aspergillus spp. (A. fumigatus ATCC MYA-3626 (QC, Table 110), 48 hr) came out at 4 µg/mL.
For the compound `C1C[S][Bi]([S]CC[S][Bi]2[S]CC[S]2)[S]1` [BisEDT, bismuth-1,2-ethanedithiol], the “peak VMD” value in series [2] was “about 1.3 microns”. Further, in series [3] (administered topically for 6 hours), the concentration well-tolerated entry is reported as “up to 2500 μg/cm^2”. Moreover, in [3] (topical, over 21 days continuous exposure to normal and abraded skin), the concentration tolerated result is “up to 75 μg/cm^2”. Also, in the series on E. coli ATCC 25922, the “Expected MIC: acceptable range” value was 0.5 to 2 µg/mL and the “Expected MIC: goal” value is 1 µg/mL. The tolerability result in [4] is “tolerated”.
On to `C[C@@H](O)[C@H]1C(=O)N2C(C(=O)O)=C(S[C@@H]3CN[C@H](C(=O)N(C)C)C3)[C@H](C)[C@H]12` [MEM], for which the MIC is 0.25 µg/mL (≈ 0.652 µM) in the series on Pseudomonas aeruginosa (P. aeruginosa ATCC 27853, QC organism); >8 µg/mL in the series with Pseudomonas aeruginosa (Pseudomonas aeruginosa CDC 230, VIM/OXA); >8 µg/mL against Pseudomonas aeruginosa (Pseudomonas aeruginosa CDC 231, KPC/OXA); >8 µg/mL in the series with Pseudomonas aeruginosa (Pseudomonas aeruginosa CDC 241, IMP/OXA); >8 µg/mL against Pseudomonas aeruginosa (Pseudomonas aeruginosa CDC 246, NDM/OXA); >8 µg/mL in the series on Pseudomonas aeruginosa (Pseudomonas aeruginosa CDC 250, NDM/OXA). For the same compound, the MIC against Pseudomonas aeruginosa (Pseudomonas aeruginosa CDC 356, KPC) is >8 µg/mL; in the series on Pseudomonas aeruginosa (Pseudomonas aeruginosa CDC 439, IMP), >8 µg/mL; in the series on Pseudomonas aeruginosa (Pseudomonas aeruginosa CDC 444, VIM), >8 µg/mL; against Pseudomonas aeruginosa (Pseudomonas aeruginosa CDC 457, VIM) it was >8 µg/mL; against Pseudomonas aeruginosa (Pseudomonas aeruginosa CDC 516, KPC/AmpC) it was >8 µg/mL; in the series on Pseudomonas aeruginosa (Pseudomonas aeruginosa CDC 518, KPC/AmpC), >8 µg/mL. Also, the MIC is 4 µg/mL in series [5] (B. cenocepacia isolate 0548); 2 µg/mL in series [5] (B. cenocepacia isolate 0813); 4 µg/mL in series [5] (B. cepacia isolate 0546); 4 µg/mL in series [5] (B. cepacia isolate 1793); 4 µg/mL in [5] (B. multivorans isolate 1795); 8 µg/mL (≈ 20.9 µM) against Klebsiella pneumoniae (K. pneumoniae ATCC BAA-1705, QC organism). Besides, the MIC is 8 µg/mL (≈ 20.9 µM) with Klebsiella pneumoniae (Klebsiella pneumoniae ATCC BAA-1705, ESBL/KPC); >8 µg/mL against Klebsiella pneumoniae (Klebsiella pneumoniae CDC 112, KPC); >8 µg/mL in the series with Klebsiella pneumoniae (Klebsiella pneumoniae CDC 113, ESBL/KPC); >8 µg/mL in the series with Klebsiella pneumoniae (Klebsiella pneumoniae CDC 115, ESBL/KPC); >8 µg/mL against Klebsiella pneumoniae (Klebsiella pneumoniae CDC 120, ESBL/KPC); 4 µg/mL (≈ 10.4 µM) against Klebsiella pneumoniae (Klebsiella pneumoniae CDC 126, ESBL/KPC). Besides, the MIC is 8 µg/mL (≈ 20.9 µM) with Klebsiella pneumoniae (Klebsiella pneumoniae CDC 129, ESBL/KPC); 1 µg/mL (≈ 2.61 µM) against Klebsiella pneumoniae (Klebsiella pneumoniae CDC 135, ESBL/VIM); >8 µg/mL against Klebsiella pneumoniae (Klebsiella pneumoniae CDC 138, ESBL/NDM); >8 µg/mL with Klebsiella pneumoniae (Klebsiella pneumoniae CDC 158, ESBL/NDM/OXA); 0.015 µg/mL (≈ 0.0391 µM) with Klebsiella pneumoniae (Klebsiella pneumoniae MMX 9029, ESBL).

These data come from patent US12186283B2, “Bismuth-thiol compositions and methods of use” (Microbion Corporation, priority 2018, dated 2025).
